Biological target: BRD4 (Homo sapiens, UniProt O60885)
Test: Differential Scanning Fluorimetry (DSF), stability of BRD4 upon ligand binding
Settings: for ΔTm at 4 µM: 100 μM protein, 4 μM compound and 2% DMSO; for IC50: estimated
Method: DSF=Differential Scanning Fluorimetry; provides a measure of the increased stability of BRD4 upon ligand binding The DSF experiment was run at 100 μM protein, 4 μM compound and 2% DMSO.

CCc1cnc(Nc2ccc(N3CCN(C)CC3)cc2)nc1Nc1cccc(S(=O)(=O)NC(C)C)c1
ΔTm at 4 µM: 2.2 °C | IC50: 3990 nM

CC(C)NS(=O)(=O)c1cccc(Nc2nc(Nc3ccc(N4CCOCC4)cc3)ncc2Br)c1
ΔTm at 4 µM: -0.79 °C | IC50: 39800 nM

CCc1cnc(Nc2ccc(N3CCOCC3)cc2)nc1Nc1cccc(S(=O)(=O)NC(C)C)c1
ΔTm at 4 µM: -0.29 °C | IC50: 27100 nM

CC(C)(C)c1cccc(Nc2nc(Nc3ccc(N4CCOCC4)cc3)ncc2Cl)c1
ΔTm at 4 µM: -0.34 °C | IC50: 28200 nM

CC(C)NS(=O)(=O)c1cccc(Nc2nc(Nc3ccc(N4CCNCC4)cc3)ncc2Br)c1
ΔTm at 4 µM: 5 °C | IC50: 460 nM

CCc1cnc(Nc2ccc(N3CCOCC3)cc2)nc1Nc1cccc(S(=O)(=O)NC(C)(C)C)c1
ΔTm at 4 µM: -0.0084 °C | IC50: 21800 nM

CCc1cnc(Nc2ccc(N3CCN(C)CC3)cc2)nc1Nc1cccc(S(=O)(=O)NC(C)(C)C)c1
ΔTm at 4 µM: 3.2 °C | IC50: 1850 nM

Cc1nc(Nc2ccc(N3CCOCC3)cc2)nc(Nc2cccc(S(=O)(=O)NC(C)(C)C)c2)c1C
ΔTm at 4 µM: 1.9 ± 0.17 °C | IC50: 5030 nM

COc1ccc(Nc2nc(C)c(C)c(Nc3cccc(S(=O)(=O)NC(C)(C)C)c3)n2)cc1
ΔTm at 4 µM: 0.22 ± 0.2 °C | IC50: 18300 nM

COc1ccc(Nc2nc(C)c(C)c(Nc3cccc(S(N)(=O)=O)c3)n2)cc1
ΔTm at 4 µM: 0.12 ± 0.13 °C | IC50: 19800 nM

Cc1cnc(Nc2ccc(N3CCN(C)CC3)cc2)nc1Nc1cccc(S(=O)(=O)NC(C)C)c1
ΔTm at 4 µM: 6 ± 0.1 °C | IC50: 210 nM

CN1CCN(c2ccc(Nc3ncc(C(F)(F)F)c(Nc4cccc(S(=O)(=O)NC(C)(C)C)c4)n3)cc2)CC1
ΔTm at 4 µM: 0.2 ± 0.082 °C | IC50: 18600 nM

CC(C)(C)NS(=O)(=O)c1cccc(Nc2nc(Nc3ccc(N4CCNCC4)cc3)ncc2C(F)(F)F)c1
ΔTm at 4 µM: 2.9 ± 0.031 °C | IC50: 2330 nM

CN1CCN(c2ccc(Nc3ncc(F)c(Nc4ccc(C(=O)Nc5ccccc5)cc4)n3)cc2)CC1
ΔTm at 4 µM: 0.35 ± 0.068 °C | IC50: 17000 nM

CN1CCN(c2ccc(Nc3ncc(F)c(Nc4ccc(C(=O)NC5CC5)cc4)n3)cc2)CC1
ΔTm at 4 µM: 3.4 ± 0.27 °C | IC50: 1600 nM

Cc1cnc(Nc2ccc(C3CCN(C)CC3)cc2)nc1Nc1cccc(NS(=O)(=O)C(C)(C)C)c1
ΔTm at 4 µM: 7.6 ± 0.28 °C | IC50: 61 nM

Cc1cnc(Nc2ccc(N3CCN(C)CC3)cc2)nc1Nc1ccc(C(=O)NC2CC2)cc1
ΔTm at 4 µM: 6.5 ± 0.11 °C | IC50: 150 nM

Cc1cnc(Nc2ccc(CC(=O)N3CCN(C)CC3)cc2)nc1Nc1ccc(C(=O)NC2CC2)cc1
ΔTm at 4 µM: 6.8 ± 0.15 °C | IC50: 110 nM

CN1CCN(C(=O)Cc2ccc(Nc3ncc(F)c(Nc4ccc(C(=O)NC5CC5)cc4)n3)cc2)CC1
ΔTm at 4 µM: 4.2 ± 0.2 °C | IC50: 850 nM

Cc1ccc(Nc2nc(Nc3ccc(N4CCN(C)CC4)cc3)ncc2C)cc1NS(=O)(=O)C(C)(C)C
ΔTm at 4 µM: 9.2 ± 0.12 °C | IC50: 18 nM

Cc1cnc(Nc2ccc(N3CCN(C)CC3)cc2)nc1Nc1cccc(NS(=O)(=O)c2ccccc2)c1
ΔTm at 4 µM: 4.1 ± 0.07 °C | IC50: 900 nM

Cc1cnc(Nc2ccc(N3CCN(C)CC3)cc2)nc1Nc1ccc(Cl)c(NS(=O)(=O)c2ccccc2)c1
ΔTm at 4 µM: 4.1 ± 0.1 °C | IC50: 960 nM

Cc1cnc(Nc2ccc(N3CCN(C)CC3)cc2)nc1Nc1cccc(NS(=O)(=O)C(C)C)c1
ΔTm at 4 µM: 7.5 ± 0.14 °C | IC50: 66 nM

Cc1cnc(Nc2ccc(N3CCN(C)CC3)cc2)nc1Nc1ccc(F)c(NS(=O)(=O)C(C)(C)C)c1
ΔTm at 4 µM: 9.5 ± 0.07 °C | IC50: 14 nM

Cc1cnc(Nc2ccc(N3CCN(C)CC3)cc2)nc1Nc1cc(NS(=O)(=O)C2CC2)cc(NS(=O)(=O)C2CC2)c1
ΔTm at 4 µM: 5.3 ± 0.041 °C | IC50: 370 nM

Cc1cnc(Nc2ccc(N3CCN(C)CC3)cc2)nc1Nc1ccc(Cl)c([N+](=O)[O-])c1
ΔTm at 4 µM: 2 ± 0.05 °C | IC50: 4700 nM

Cc1cnc(Nc2ccc(N3CCN(C)CC3)cc2)nc1Nc1ccc(Cl)c(S(=O)(=O)NC(C)(C)C)c1
ΔTm at 4 µM: 8.4 ± 0.13 °C | IC50: 34 nM

Cc1cnc(Nc2ccc(CC(=O)N3CCN(C)CC3)cc2)nc1Nc1ccc(Cl)cc1
ΔTm at 4 µM: 4.1 ± 0.21 °C | IC50: 930 nM

Cc1cnc(Nc2ccc(CC(=O)N3CCN(C)CC3)cc2)nc1Nc1ccc(Cl)c(Cl)c1
ΔTm at 4 µM: 4.7 ± 0.14 °C | IC50: 580 nM

CCCS(=O)(=O)Nc1cc(Nc2nc(Nc3ccc(N4CCN(C)CC4)cc3)ncc2C)ccc1Cl
ΔTm at 4 µM: 6.7 ± 0.15 °C | IC50: 130 nM

Cc1cnc(Nc2ccc(CC(=O)N3CCN(C)CC3)cc2)nc1Nc1ccc(Cl)c(NS(=O)(=O)C(C)(C)C)c1
ΔTm at 4 µM: 9.8 ± 0.03 °C | IC50: 12 nM

CCOC(=O)c1cnc(Nc2ccc(N3CCN(C)CC3)cc2)nc1Nc1cccc(NS(=O)(=O)C(C)(C)C)c1
ΔTm at 4 µM: 3.4 ± 0.12 °C | IC50: 1600 nM

Cc1ccc(Nc2nc(Nc3ccc(N4CCN(C)CC4)cc3)ncc2C)cc1S(=O)(=O)NC1CCC1
ΔTm at 4 µM: 6.7 ± 0.13 °C | IC50: 130 nM

Cc1ccc(Nc2nc(Nc3ccc(C(=O)NC4CCN(C)CC4)c(F)c3)ncc2C)cc1S(=O)(=O)NC1CCC1
ΔTm at 4 µM: 7.8 ± 0.15 °C | IC50: 54 nM

Cc1ccc(Nc2nc(Nc3ccc(N4CCN(C)CC4)c(F)c3)ncc2C)cc1S(=O)(=O)NC1CCC1
ΔTm at 4 µM: 6.8 ± 0.01 °C | IC50: 120 nM

CN1CCN(c2ccc(Nc3ncc(CO)c(Nc4cccc(NS(=O)(=O)C(C)(C)C)c4)n3)cc2)CC1
ΔTm at 4 µM: 3.1 ± 0.08 °C | IC50: 2000 nM

Cc1ccc(Nc2nc(Nc3ccc(C4CCN(C)CC4)cc3)ncc2C)cc1S(=O)(=O)NC1CCC1
ΔTm at 4 µM: 7.7 ± 0.17 °C | IC50: 58 nM

Cc1cnc(Nc2ccc(N3CCN(C)CC3)cc2)nc1Nc1cccc(NS(=O)(=O)C2(C)CC2)c1
ΔTm at 4 µM: 7.5 ± 0.23 °C | IC50: 68 nM

Cc1cnc(Nc2ccc(N3CCN(C)CC3)c(F)c2)nc1Nc1cccc(NS(=O)(=O)C2(C)CC2)c1
ΔTm at 4 µM: 9.1 ± 0.05 °C | IC50: 20 nM

CCCS(=O)(=O)Nc1cccc(Nc2nc(Nc3ccc(N4CCN(C)CC4)cc3)ncc2C)c1
ΔTm at 4 µM: 6.7 ± 0.157 °C | IC50: 321 nM

Cc1cnc(Nc2ccc(N3CCN(C)CC3)cc2)nc1Nc1cccc(NS(=O)(=O)CC(C)C)c1
ΔTm at 4 µM: 6.58 ± 0.103 °C | IC50: 347 nM

CCS(=O)(=O)Nc1cc(Nc2nc(Nc3ccc(N4CCN(C)CC4)cc3)ncc2C)ccc1Cl
ΔTm at 4 µM: 7.93 ± 0.183 °C | IC50: 145 nM

Cc1cnc(Nc2ccc(N3CCN(C)CC3)cc2)nc1Nc1ccc(Cl)c(NS(=O)(=O)CC(C)C)c1
ΔTm at 4 µM: 7.28 ± 0.091 °C | IC50: 221 nM

Cc1cnc(Nc2ccc(N3CCN(C)CC3)c(F)c2)nc1Nc1ccc(Cl)c(NS(=O)(=O)CC(C)C)c1
ΔTm at 4 µM: 8.89 ± 0.044 °C | IC50: 74.8 nM

Cc1cnc(Nc2ccc(N3CCN(C)CC3)cc2)nc1Nc1ccc2c(c1)N(S(=O)(=O)C(C)(C)C)CC2
ΔTm at 4 µM: 9.97 ± 0.08 °C | IC50: 39 nM

Cc1cnc(Nc2ccc(N3CCN(C)CC3)c(F)c2)nc1Nc1ccc2c(c1)N(S(=O)(=O)C(C)(C)C)CC2
ΔTm at 4 µM: 12.1 ± 0.105 °C | IC50: 9.8 nM

Cc1cnc(Nc2ccc(C(=O)NC3CCN(C)CC3)c(F)c2)nc1Nc1ccc2c(c1)N(S(=O)(=O)C(C)(C)C)CC2
ΔTm at 4 µM: 12.3 ± 0.116 °C | IC50: 8.6 nM

Cc1cnc(Nc2ccc(N3CCN(C)CC3)cc2)nc1Nc1ccc2c(c1)N(S(=O)(=O)C(C)(C)C)CCC2
ΔTm at 4 µM: 8.72 ± 0.141 °C | IC50: 87.3 nM

Cc1cnc(Nc2ccc(N3CCN(C)CC3)c(F)c2)nc1Nc1ccc2c(c1)N(S(=O)(=O)C(C)(C)C)CCC2
ΔTm at 4 µM: 10.5 ± 0.15 °C | IC50: 27.7 nM

Cc1cnc(Nc2ccc(C(=O)NC3CCN(C)CC3)c(F)c2)nc1Nc1ccc2c(c1)N(S(=O)(=O)C(C)(C)C)CCC2
ΔTm at 4 µM: 11.4 ± 0.103 °C | IC50: 15.5 nM

Cc1cnc(Nc2ccc(N3CCN(C)CC3)c(Cl)c2)nc1Nc1ccc(Cl)c(NS(=O)(=O)C(C)(C)C)c1
ΔTm at 4 µM: 9.54 ± 0.163 °C | IC50: 51.4 nM

Cc1cc(Nc2ncc(C)c(Nc3ccc(Cl)c(NS(=O)(=O)C(C)(C)C)c3)n2)ccc1N1CCN(C)CC1
ΔTm at 4 µM: 10.4 ± 0.151 °C | IC50: 29.5 nM

Cc1cnc(Nc2cc(F)c(N3CCN(C)CC3)c(F)c2)nc1Nc1cccc(NS(=O)(=O)C(C)(C)C)c1
ΔTm at 4 µM: 12.8 ± 0.058 °C | IC50: 6.28 nM

Cc1cnc(Nc2ccc(N3CCN(C)CC3)c(C(F)(F)F)c2)nc1Nc1cccc(NS(=O)(=O)C(C)(C)C)c1
ΔTm at 4 µM: 8.12 ± 0.044 °C | IC50: 129 nM

Cc1cnc(Nc2cc(F)c(N3CCN(C)CC3)c(F)c2)nc1Nc1ccc(Cl)c(NS(=O)(=O)C(C)(C)C)c1
ΔTm at 4 µM: 13.8 ± 0.191 °C | IC50: 3.29 nM

Cc1cnc(Nc2cc(F)c(N3CCN(C)CC3)c(F)c2)nc1Nc1ccc(Cl)c(NS(=O)(=O)C2(C)CC2)c1
ΔTm at 4 µM: 12.3 ± 0.167 °C | IC50: 8.6 nM

Cc1cnc(Nc2ccc(C(=O)NC3CCN(C)CC3)c(F)c2)nc1Nc1ccc(Cl)c(NS(=O)(=O)C2(C)CC2)c1
ΔTm at 4 µM: 10.9 ± 0.22 °C | IC50: 21 nM

Cc1cnc(Nc2ccc(N3CCN(C)CC3)cc2)nc1Nc1cccc([N+](=O)[O-])c1
ΔTm at 4 µM: 3.17 ± 0.142 °C | IC50: 3130 nM
